Assays:
[1] = system: mammary adenocarcinoma cells; details: lung metastases induced by mammary adenocarcinoma cells, experimental animals; cited from earlier work
[2] = system: Lewis lung carcinoma; details: lung metastases induced by Lewis lung carcinoma, experimental animals; cited from earlier work
[3] = system: B16 melanoma; details: lung metastases induced by B16 melanoma, experimental animals; cited from earlier work
[4] = Measurement of unsaturated bond formation (lyase activity) using absorbance at 232 nm; type: biochemical; details: 0.2% heparin, measured every 10 minutes for 1 hour, FIG. 1
Experimental: Measurement of Unsaturated Bond Formation Using Absorbance at 232 nm:
Reactions were prepared in 1 ml quartz cuvettes. For heparinase I [Lavobacterium heparinum, Sigma, Cat. No. H2519], 3 units enzyme were added to a reaction mixture A (18 mM Tris buffer pH 7.5, 45 mM NaCl, 4 mM CaCl2, 0.01% BSA) containing 0.2% heparin. For recombinant heparanase (expressed in insect cells, see, U.S. patent application Ser. Nos. 08/922,170; 09/071,618; 09/109,386; 09/258,892 and 09/260,038 and in PCT/US98/17954 and PCT/US98/09256, all of which are incorporated herein by reference), 5 mg enzyme were added to a reaction mixture B (20 mM phosphate citrate buffer pH 5.4, 1 mM CaCl2, 1 mM NaCl and 0.01% BSA) containing 0.2% heparin. Absorbance at 232 nm was measured in a Cary 100 (Varian) spectrophotometer every 10 minutes for a period of 1 hour.
Partially purified recombinant human heparanase expressed in insect cells was examined to determine whether it is a lyase or hydrolase. A bacterial heparinase I which is a lyase was used as a control. The formation of an unsaturated bond by lyase activity as measured by 232 nm absorbance was performed as described under experimental procedures above.

Row | lyase activity: 232 nm absorbance (formation of Δ4,5 unsaturated bond of heparin) [4] | Substance | reduction of the incidence of lung metastases [1] | reduction of the incidence of lung metastases [2] | reduction of the incidence of lung metastases [3]
1 | – | laminarin sulfate | > 90% | > 90% | > 90%
2 | linear increase | heparinase I | – | – | –
